Results reported in PubChem BioAssay (NCI).
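These data come from cells grown in 96-well plates and exposed to compound for 48 hours at five concentrations. At the GI50, growth is halved. TGI: total growth inhibition.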

Legend:
Test in all cases: NCI anticancer screen, dose series, 48 h
UO-31 renal = test system: UO-31 renal
OVCAR-4 ovarian = test system: OVCAR-4 ovarian
NCI/ADR-RES ovarian = test system: NCI/ADR-RES ovarian
MOLT-4 leukemia = test system: MOLT-4 leukemia
IGROV1 ovarian = test system: IGROV1 ovarian
U251 CNS = test system: U251 CNS
NCI-H522 lung = test system: NCI-H522 lung
A549 NSCLC = test system: A549 NSCLC
SK-MEL-28 melanoma = test system: SK-MEL-28 melanoma
OVCAR-3 ovarian = test system: OVCAR-3 ovarian
HCT-15 colon = test system: HCT-15 colon
M14 melanoma = test system: M14 melanoma
RPMI-8226 leukemia = test system: RPMI-8226 leukemia
HCC-2998 colon = test system: HCC-2998 colon
MALME-3M melanoma = test system: MALME-3M melanoma
OVCAR-5 ovarian = test system: OVCAR-5 ovarian
NCI-H460 lung = test system: NCI-H460 lung
EKVX NSCLC = test system: EKVX NSCLC
786-0 renal = test system: 786-0 renal
LOX IMVI melanoma = test system: LOX IMVI melanoma
SNB-19 CNS = test system: SNB-19 CNS
KM12 colon = test system: KM12 colon
SK-MEL-5 melanoma = test system: SK-MEL-5 melanoma
HCT-116 colon = test system: HCT-116 colon
SF-539 CNS = test system: SF-539 CNS
SF-268 CNS = test system: SF-268 CNS
PC-3 prostate = test system: PC-3 prostate
K-562 leukemia = test system: K-562 leukemia
BT-549 breast = test system: BT-549 breast
RXF 393 renal = test system: RXF 393 renal
MDA-MB-435 = test system: MDA-MB-435
CAKI-1 renal = test system: CAKI-1 renal
NCI-H226 lung = test system: NCI-H226 lung
HS 578T breast = test system: HS 578T breast
UACC-62 melanoma = test system: UACC-62 melanoma
COLO 205 colon = test system: COLO 205 colon
SNB-75 CNS = test system: SNB-75 CNS
TK-10 renal = test system: TK-10 renal
SF-295 CNS = test system: SF-295 CNS
HT29 colon = test system: HT29 colon
MCF7 breast = test system: MCF7 breast
MDA-MB-231 breast = test system: MDA-MB-231 breast
DU-145 prostate = test system: DU-145 prostate
CCRF-CEM leukemia = test system: CCRF-CEM leukemia
OVCAR-8 ovarian = test system: OVCAR-8 ovarian
SN12C renal = test system: SN12C renal
SK-OV-3 ovarian = test system: SK-OV-3 ovarian
SR leukemia = test system: SR leukemia
ACHN renal = test system: ACHN renal
SK-MEL-2 melanoma = test system: SK-MEL-2 melanoma
UACC-257 melanoma = test system: UACC-257 melanoma
SW-620 colon = test system: SW-620 colon
T-47D breast = test system: T-47D breast
HL-60(TB) leukemia = test system: HL-60(TB) leukemia

CC(C)=C[C@@H]1C[C@H](C)[C@H]2CC[C@H](C)C3=C2[C@](O)(OC3=O)[C@]1(C)O
GI50 (UO-31 renal): > 100 µM
TGI (UO-31 renal): > 100 µM
GI50 (OVCAR-4 ovarian): > 100 µM
TGI (OVCAR-4 ovarian): > 100 µM
GI50 (NCI/ADR-RES ovarian): > 100 µM
TGI (NCI/ADR-RES ovarian): > 100 µM
GI50 (MOLT-4 leukemia): > 100 µM
TGI (MOLT-4 leukemia): > 100 µM
GI50 (IGROV1 ovarian): > 100 µM
TGI (IGROV1 ovarian): > 100 µM
GI50 (U251 CNS): > 100 µM
TGI (U251 CNS): > 100 µM
GI50 (NCI-H522 lung): > 100 µM
TGI (NCI-H522 lung): > 100 µM
GI50 (A549 NSCLC): > 100 µM
TGI (A549 NSCLC): > 100 µM
GI50 (SK-MEL-28 melanoma): > 100 µM
TGI (SK-MEL-28 melanoma): > 100 µM
GI50 (OVCAR-3 ovarian): > 100 µM
TGI (OVCAR-3 ovarian): > 100 µM
GI50 (HCT-15 colon): > 100 µM
TGI (HCT-15 colon): > 100 µM
GI50 (M14 melanoma): > 100 µM
TGI (M14 melanoma): > 100 µM
GI50 (RPMI-8226 leukemia): > 100 µM
TGI (RPMI-8226 leukemia): > 100 µM
GI50 (HCC-2998 colon): > 100 µM
TGI (HCC-2998 colon): > 100 µM
GI50 (MALME-3M melanoma): > 100 µM
TGI (MALME-3M melanoma): > 100 µM
GI50 (OVCAR-5 ovarian): > 100 µM
TGI (OVCAR-5 ovarian): > 100 µM
GI50 (NCI-H460 lung): > 100 µM
TGI (NCI-H460 lung): > 100 µM
GI50 (EKVX NSCLC): > 100 µM
TGI (EKVX NSCLC): > 100 µM
GI50 (786-0 renal): > 100 µM
TGI (786-0 renal): > 100 µM
GI50 (LOX IMVI melanoma): > 100 µM
TGI (LOX IMVI melanoma): > 100 µM
GI50 (SNB-19 CNS): > 100 µM
TGI (SNB-19 CNS): > 100 µM
GI50 (KM12 colon): > 100 µM
TGI (KM12 colon): > 100 µM
GI50 (SK-MEL-5 melanoma): > 100 µM
TGI (SK-MEL-5 melanoma): > 100 µM
GI50 (HCT-116 colon): > 100 µM
TGI (HCT-116 colon): > 100 µM
GI50 (SF-539 CNS): > 100 µM
TGI (SF-539 CNS): > 100 µM
TGI (SF-268 CNS): > 100 µM
GI50 (PC-3 prostate): > 100 µM
TGI (PC-3 prostate): > 100 µM
GI50 (K-562 leukemia): > 100 µM
TGI (K-562 leukemia): > 100 µM
GI50 (BT-549 breast): > 100 µM
TGI (BT-549 breast): > 100 µM
GI50 (RXF 393 renal): > 100 µM
TGI (RXF 393 renal): > 100 µM
GI50 (MDA-MB-435): > 100 µM
TGI (MDA-MB-435): > 100 µM
GI50 (CAKI-1 renal): > 100 µM
TGI (CAKI-1 renal): > 100 µM
GI50 (NCI-H226 lung): > 100 µM
TGI (NCI-H226 lung): > 100 µM
GI50 (HS 578T breast): > 100 µM
TGI (HS 578T breast): > 100 µM
GI50 (UACC-62 melanoma): 99.8 µM
TGI (UACC-62 melanoma): > 100 µM
GI50 (COLO 205 colon): > 100 µM
TGI (COLO 205 colon): > 100 µM
GI50 (SNB-75 CNS): > 100 µM
TGI (SNB-75 CNS): > 100 µM
GI50 (TK-10 renal): > 100 µM
TGI (TK-10 renal): > 100 µM
GI50 (SF-295 CNS): > 100 µM
TGI (SF-295 CNS): > 100 µM
GI50 (HT29 colon): > 100 µM
TGI (HT29 colon): > 100 µM
GI50 (MCF7 breast): 71.5 µM
TGI (MCF7 breast): > 100 µM
GI50 (MDA-MB-231 breast): > 100 µM
TGI (MDA-MB-231 breast): > 100 µM
GI50 (DU-145 prostate): > 100 µM
TGI (DU-145 prostate): > 100 µM
GI50 (CCRF-CEM leukemia): > 100 µM
TGI (CCRF-CEM leukemia): > 100 µM
GI50 (OVCAR-8 ovarian): > 100 µM
TGI (OVCAR-8 ovarian): > 100 µM
GI50 (SN12C renal): > 100 µM
TGI (SN12C renal): > 100 µM
GI50 (SK-OV-3 ovarian): > 100 µM
TGI (SK-OV-3 ovarian): > 100 µM
GI50 (SR leukemia): > 100 µM
TGI (SR leukemia): > 100 µM
GI50 (ACHN renal): > 100 µM
TGI (ACHN renal): > 100 µM
GI50 (SK-MEL-2 melanoma): > 100 µM
TGI (SK-MEL-2 melanoma): > 100 µM
GI50 (UACC-257 melanoma): > 100 µM
TGI (UACC-257 melanoma): > 100 µM
GI50 (SW-620 colon): > 100 µM
TGI (SW-620 colon): > 100 µM
GI50 (T-47D breast): > 100 µM
TGI (T-47D breast): > 100 µM
GI50 (HL-60(TB) leukemia): > 100 µM
TGI (HL-60(TB) leukemia): > 100 µM
